# Source: article PMC10496123, “Potent Antifungal Activity of Penta-O-galloyl-β-D-Glucose against Drug-Resistant Candida albicans, Candida auris, and Other Non-albicans Candida Species” (ACS Infectious Diseases, 2023)
# Values joined by “and” are separate entries in the source; they are usually repeats but may differ in a detail not shown here. Identical values can stand only once.
# Assays:
# C. albicans [1] = assay: Ergosterol binding assay (growth inhibition with exogenous ergosterol); format: cell-based, Candida albicans; settings: 80 μg mL^–1 exogenous ergosterol, 1×–4× MIC, 24 h
# Method: Ergosterol binding was measured using a previously described method,[60] with some modifications. Briefly, ergosterol (TCI) was pulverized with a sterile pestle and mortar and then dissolved in 100% ethanol. The resultant emulsion was warmed at 37 °C for 15 min and then sonicated for 45 min prior to use. […] The negative control was untreated culture. A media blank was used to monitor for contamination. Experiments were repeated in triplicate with three technical replicates per treatment and on different days. page 5: Figure S4. Growth inhibition of penta-O-galloyl-β-D-glucose against C. albicans not affected by additional ergosterol. C. albicans was treated with PGG or […] mL-1). After 24 hours, treatment groups were measured for growth inhibition. The data are plotted as mean % growth inhibition ± SD as compared to vehicle controls from three independent experiments . Dotted line represents 90% growth inhibition . S5 (1 picture or pasted object on this page, not shown here)
# Acinetobacter baumanii = system: Acinetobacter baumanii; design: method as in PMID 32948818; settings: 21 daily passages; cited from earlier work
# HepG2 cells = assay: CellTiter-Glo cell viability/proliferation (relative ATP); format: cell-based; settings: Homo sapiens, HepG2, 24 h; read-out: IC50 (viable cell number reduced by 50%, relative ATP)
# Method: (§1) Hek293 cells were purchased from BEI Resources. HaCaT cells were purchased from ATCC. HepG2 cells were provided by Dr. Edward Morgan (Emory University). Mammalian cell cultures were maintained in Dulbecco’s modified Eagle’s medium with L-glutamine and 4.5 g L^–1 glucose (Corning) supplemented with 10% fetal bovine serum (Avantor) and a 100× combination solution of 10,000 IU mL^–1 penicillin and 10,000 μg mL^–1 streptomycin (Corning) at 37 °C, 5% CO2. Mammalian cultures at 70–80% confluency were used for cell viability and cytotoxicity experiments.
# (§2) ATP content as a marker for the relative viable cell number was measured with the CellTiter-Glo Luminescent Cell Viability assay (Promega Corporation). The mammalian culture was standardized at 4 × 10^3 cells per 100 μL in a Costar 3610 white plate, clear bottom 96-well plates (Corning). Cells were allowed to attach and incubate for 24 h before growth media was replaced with treatment media (PGG, 16–512 μg mL^–1) or an equivalent volume of DMSO, followed by incubation for 24 h. After incubation with treatment, plates were equilibrated to room temperature for 1 h, and then 100 μL of CellTiter-Glo reagent was added to each well and mixed for 2 min. Plates were allowed to incubate at room temperature for 10 min before luminosity was measured with an integration time of 1 s via a BioTek Cytation3 plate reader. The relative viable cell number was measured by comparing treatment samples to untreated controls. Experiments were repeated in triplicate with three technical replicates per treatment and on different days.
# HaCaT cells = assay: as above; format: cell-based; settings: Homo sapiens, 24 h, read-out: IC50 (viable cell number, relative ATP)
# Method: as §1, §2
# Hek293 cells = assay: as above; format: cell-based; settings: Homo sapiens, HEK293, 24 h; read-out: IC50 (viable cell number reduced by 50%, relative ATP)
# Method: as §1, §2
# humans = settings: balloon catheter, 3 mg/mL over 25 mL; cited from earlier work
# [2] = after oral administration in mice; cited from earlier work
# [3] = LDH chemical-induced cytotoxicity; format: cell-based
# Method: as §1
# The mammalian culture was standardized to 4 × 10^3 cells per 100 μL. Cells were allowed to attach and incubate for 24 h before growth media was replaced with treatment media (PGG, 16–512 μg mL^–1) or an equivalent volume of the DMSO vehicle, followed by incubation for 24 h. Plates were then evaluated with an LDH cytotoxicity assay (G Biosciences) and processed according to the manufacturer’s protocol for chemical-induced cytotoxicity. Experiments were repeated in triplicate with three technical replicates per treatment and on different days.
# Candida auris = assay: Growth inhibition by CLSI microbroth dilution; format: cell-based; settings: Candidozyma auris, 48 h
# C. albicans 90028 = assay: Iron supplementation growth inhibition assay; format: cell-based, Candida albicans; settings: 10 mM iron (II) or iron (III); PGG 4–16 μg mL^–1; 48 h
# Method: For iron supplementation assays, growth inhibition assays were performed by microbroth dilution following the guidelines set by the CLSI.[58] A solution of iron (II) sulfate and iron (III) sulfate (VWR) was dissolved in deionized water to a concentration of 10 mM and added to treated wells at the beginning of incubation. Growth inhibition was measured after 48 h. Percent growth inhibition was determined by comparing treatments to vehicle controls. Iron supplementation experiments were repeated in duplicate with three technical replicates per treatment and on different days.
# [4] = system: Acinetobacter baumannii (various strains); design: method as in PMID 32948818; settings: antibacterial; possibly iron chelation; cited from earlier work
# C. albicans [5] = assay: Concentration-response matrixes (checkerboard assays); format: cell-based, Candida albicans; settings: FICI at 90% growth inhibition, 48 h, 30 °C
# mice = settings: 20 mg/kg/day orally in mice; cited from earlier work
# [6] = system: drug-sensitive C. albicans; assay: Growth inhibition in fungal growth media with 10% FBS; format: cell-based, Candida albicans; settings: 10% fetal bovine serum; concentrations up to 512 μg mL^–1; data not shown
# influenza A = system: influenza A; design: method as in PMID 35033970; settings: interference with viral replication; cited from earlier work
# HT-29 cells = system: HT-29 cells; design: method as in PMID 27196315, PMID 29778287; settings: inhibition of proliferation; cited from earlier work
smiles,measurement,setting,value
"O=C(OC[C@H]1O[C@@H](OC(=O)c2cc(O)c(O)c(O)c2)[C@H](OC(=O)c2cc(O)c(O)c(O)c2)[C@@H](OC(=O)c2cc(O)c(O)c(O)c2)[C@@H]1OC(=O)c1cc(O)c(O)c(O)c1)c1cc(O)c(O)c(O)c1 [PGG, penta-O-galloyl-β-D-glucose]",Growth inhibitory activity with additional ergosterol,C. albicans [1],not affected
same,Development of resistance,Acinetobacter baumanii,did not develop resistance
same,IC50,HepG2 cells,68 µM and 64 µg/mL
same,IC50,HaCaT cells,32 µg/mL and 34 µM
same,IC50,Hek293 cells,64 µg/mL and 68 µM
same,Safety in humans,humans,safely
same,Detection in plasma,[2],could not be detected
same,CC50 at 24 h,"[3]; HaCaT cells (keratinocytes), HaCaT (human keratinocytes)",> 272 µM
same,CC50 at 24 h,"[3]; HaCaT cells (keratinocytes), HaCaT (human keratinocytes), serum-supplemented medium",> 256 µg/mL
same,CC50 at 24 h,"[3]; Hek293 cells (kidney), Hek293 (human kidney)",> 272 µM
same,CC50 at 24 h,"[3]; Hek293 cells (kidney), Hek293 (human kidney), serum-supplemented medium",> 256 µg/mL
same,CC50 at 24 h,"[3]; HepG2 cells (liver), HepG2 (human liver)",> 272 µM
same,CC50 at 24 h,"[3]; HepG2 cells (liver), HepG2 (human liver), serum-supplemented medium",> 256 µg/mL
same,MIC,"Candida auris; strain AR Bank #0381, >90% growth inhibition",0.25 µg/mL
same,IC50,"Candida auris; strain AR Bank #0387, >50% growth inhibition",0.5 µg/mL
same,MIC,"Candida auris; strain AR Bank #0387, >90% growth inhibition",1 µg/mL
same,IC50,"Candida auris; strain AR Bank #0390, >50% growth inhibition",4 µg/mL
same,MIC,"Candida auris; strain AR Bank #0390, >90% growth inhibition",8 µg/mL
same,Reduction of the growth inhibitory activity on iron supplementation,C. albicans 90028,80–100%
same,IC50/EC50,[4],16 to 64 µg/mL
same,Synergistic interaction with caspofungin,C. albicans [5]; C. albicans ATCC 90028,does not potentiate
same,Synergistic interaction with fluconazole,C. albicans [5]; azole-tolerant clinical isolate CaCi-2,does not potentiate
same,Tolerability,mice,tolerated without ill effects
same,Growth inhibition in serum-supplemented medium,[6],loss of growth inhibition
same,IC50/EC50,influenza A,5.3 µg/mL
same,IC50/EC50,HT-29 cells,4.46 µM
